Measurements from US20260297571A1, “METHODS FOR DECREASING NEURONAL DEATH, INFLAMMATION, AND DEGENERATION” (The Johns Hopkins University, priority 2023, published 2026).

Columns and labels:
[1] = system: poly-GR expressing neurons; experiment: Cell survival assay, GR50 expressing i^3Neurons; type: cell-based, human
Protocol: (§1) Cell survival assay. I'Neurons were infected with lentivirus to transduce GR50, PR50, BFP or GFP expression in the cells on day 5, day 7, day 9 or day 11 depending on the experimental timeline. For inducible DPRs, the virus was added to neurons on differentiation day 6. The expression was initiated by adding Dox to the differentiation medium (induction day 1). To validate the effect of the drugs on neuron survival, DPR was transduced for 7 days. i^3Neurons were treated with 5 μM ASOs for 7 days or 2.5 μM ISP (Sigma, Cat. No. 5343390001) or 3.7 μM DJ001 (Sigma, Cat. No. SML2787) for 3 days before harvesting. To examine the effect of the drugs on other cellular phenotypes, DPR was transduced for 3 days. 2.5 μM ISP or 3.7 μM DJ001 was added to the culture medium on the same day, followed by FYVE reporter transduction 1 day later.
(§2) To measure cell survival, bright-field images were captured on day 14 using a Nikon TS-2 microscope. At least 4 images were taken at 10× object for each replica. At least 2 replicas were included for each batch. All experiments were performed at least twice. To examine dead neurons, PI (Thermo Fisher, Cat. No. P1304MP) dye was added to the culture medium 30 min before harvesting. Images of bright field and Cy3 channel were acquired, followed by quantifying the surviving neurons and PI^+ signals blindly.

PIKFYVE = settings: YM-201636; cited from earlier work
[2] = system: poly-PR expressing neurons; experiment: Cell survival assay, PR50 expressing i^3Neurons; type: cell-based, human
Protocol: as §1, §2

C9-iPSNs = experiment: Glutamate-induced excitotoxicity assay in C9 iPSNs/iMNs; type: cell-based, human; settings: 10 μM glutamate
Protocol: Glutamate toxicity contributes to the disease onset/progression in ALS due to the loss of glutamate transporter 1 (EAAT2). […] To evaluate the effect of PTPσ knockdown to the physiology of C9-iPSNs, glutamate-induced excitotoxicity assays were performed and the percentage of cell death (PI^+) was quantified after the treatment with or without PTPσ knockdown. […] Taken together, the evidence supports PTPσ knockdown as beneficial for homeostasis of endo-lysosomal system, neuronal function, and survival in the C9-iPSNs.
C9 patient iPSNs differentiation (iMNs differentiation). […]
Glutamate-induced excitotoxicity assay. […] Five pairs of age and gender-matched control and C9ORF72-ALS iPSNs were analyzed.
Confocal microscopy and image quantification. […] For GFP-2×FYVE florescence intensity quantification, at least 6 images were taken for each replica with more than 30 neurons. […] The fluorescence intensity of the region of interest was measured and then minus the background intensity. For the quantification of EEA1^+ and LAMP1^+ puncta, EEA1 or LAMP1 channel was merged with MAP2. The puncta within MAP2 region were counted and compared among groups. For the quantification in mouse brains, at least 6 serial sections were imaged to quantify the number of neurons, astrocyte, and microglia in mouse brains. […] At least 500 cells from each biological replicate will be counted for statistical comparison.

[3] = system: poly-GR expressing neurons (EEA1^+ early endosome); experiment: EEA1 immunofluorescence staining in i^3Neurons; type: cell-based, human; settings: DJ001 3.7 μM; 3-days GR50 i^3Neurons
Text: During early endosome formation, Rab5 recruits EEA1 to the early endosomal membrane via local PI3P, thus EEA1 expression is considered a secondary indicator of PI3P level. […] EEA1^+ endosome formation was increased upon knocking down PTPσ in poly-GR expressing neurons (FIGS. 2C-2D).
Cell survival assay. I'Neurons were infected with lentivirus to transduce GR50, PR50, BFP or GFP expression in the cells on day 5, day 7, day 9 or day 11 depending on the experimental timeline. For inducible DPRs, the virus was added to neurons on differentiation day 6. The expression was initiated by adding Dox to the differentiation medium (induction day 1). […]
Confocal microscopy and image quantification. […] For GFP-2×FYVE florescence intensity quantification, at least 6 images were taken for each replica with more than 30 neurons. […] The fluorescence intensity of the region of interest was measured and then minus the background intensity. For the quantification of EEA1^+ and LAMP1^+ puncta, EEA1 or LAMP1 channel was merged with MAP2. The puncta within MAP2 region were counted and compared among groups. For the quantification in mouse brains, at least 6 serial sections were imaged to quantify the number of neurons, astrocyte, and microglia in mouse brains. For glutamate-induced neurotoxicity assays, 5 images of PI staining will be taken at 20× for each well to quantify dead neurons. […]

PTPσ = settings: DJ001; cited from earlier work
hematopoietic stem cell = settings: in vitro and in the mouse model; cited from earlier work

With `Nc1ccc(C(=O)Nc2cccc(-c3nc(N4CCOCC4)c4oc5ncccc5c4n3)c2)cn1` [YM-201636] as the compound, how does the “rescue effect in poly-GR expressing neurons (survival)” value ([1]; YM-201636 0.5 μM, GR50 i^3Neurons) read?
Its value is “robust rescue effect”.

And the “PI3P levels via inhibition of PI3P to PI(3,5)P2 conversion” value (PIKFYVE)?
Its value is “can boost PI3P levels”.

With `CC(C)(O)CNc1ncc(-c2ccnc(Nc3ccnc(Cl)c3)n2)c(CC2CC2)n1` [VPS34-IN1] as the compound, how does the “rescue effect of PTPσ knockdown on GR50 neuron survival” value ([1]; VPS34-IN1 0.5 μM, 2 days, PTPσ knockdown GR50 i^3Neurons) read?
The value was “completely diminished”.

What about the “rescue by PTPσ knockdown, PR50 neurons” value ([2]; VPS34 inhibitor, PTPσ knockdown PR50 neurons) of the same compound?
The value was “abolished”.

With `N[C@@H](CCC(=O)O)C(=O)O` [glutamate] as the compound, how does the “PI^+ dead cells in control shRNA C9-iPSNs” value (C9-iPSNs) read?
The value was “increased”.

What does the source list for `O=C(/C=C\Nc1cccc([N+](=O)[O-])c1)c1ccccc1` [DJ001, (Z)-3-((3-nitrophenyl)amino)-1-phenylprop-2-en-1-one]?
formation of EEA1^+ early endosome [3]: significantly increased; poly-GR expressing neuron survival ([1]; DJ001 3.7 μM, GR50 i^3Neurons): improves; poly-PR expressing neuron survival ([2]; DJ001, PR50 i^3Neurons): improves; specificity of PTPσ inhibition (PTPσ): highly specific inhibitor; hematopoietic stem cell regeneration (hematopoietic stem cell): can promote hematopoietic stem cell regeneration
